Measured values: patent US11056705B2, “Organic anolyte materials for flow batteries” (THE REGENTS OF THE UNIVERSITY OF MICHIGAN, priority 2015, dated 2021)
Marks after values point to notes of the source that are not given here.

What was measured:
[1] = Cyclic voltammetry (CV) of anolyte candidates in a three-electrode cell; type: physicochemical; details: for ipc1/ipa1 (10 mV/s) / ipc2/ipa2 (10 mV/s) / ipc1/ipa1 (100 mV/s): 2nd cycle; for ipc2/ipa2 (10 mV/s): second couple; for reversibility of redox couple: MeCN/TBABF4
[2] = as above; type: physicochemical; details: for ipc1/ipa1 (100 mV/s) / ipc1/ipa1 (10 mV/s) / E1^0: 0.01M substrate, 0.10M support; for ipc1/ipa1 (100 mV/s) / ipc1/ipa1 (10 mV/s): 2nd cycle; for reversibility of reduction: scan rate not specified; for E1^0: Ag/Ag+ reference, (E1c+E1a)/2, — = no anodic current observed; for reversibility of redox couple: 10 mV/s (slower scan rates); for current peak-height ratios: low potential couples in TBABF4 supports; for reduction within the electrochemical window of MeCN: MeCN with NBu4BF4; for reduction potential: MeCN with NBu4BF4 (TBABF4) supporting electrolyte, versus Ag/Ag+
Description: The electrochemistry of a series of heteroarenes was evaluated by cyclic voltammetry (CV). Electrochemical analysis was performed in the absence of oxygen and moisture. The experiments were conducted in a three-electrode cell comprised of a glassy carbon working electrode, a platinum counter electrode, and a Ag/Ag^+ reference electrode. The CV of each anolyte candidate was initially conducted in acetonitrile (MeCN) with tetrabutylammonium tetrafluoroborate (TBABF4) as the supporting electrolyte.
The reversibility of each redox couple in the CV was estimated by calculating the ratio of the diffusion-limited peak-heights of the cathodic (ipc) and anodic (ipa) currents (FIG. 2). The current peak heights were determined from the second CV cycle, and are all reported following deconvolution of the current-potential plot. […] In addition, […] conducted at slow scan rates allows for an extended lifetime of the reduced species (FIG. 2, 10 mV/s scan). With longer lifetimes, the concentration of charged anolytes that are susceptible to irreversible chemical or electrochemical reactions will decrease, and lower current responses upon re-oxidation will be observed. As a result, redox couples measured at slow scan rates generally occur with current peak-height ratios that deviate from unity to a greater extent than couples measured at faster scan rates. Thus, these techniques provide a method to rapidly assess and compare a range of anolyte materials.

[3] = MeCN/LiBF4, 0.01M substrate, 0.10M support
[4] = MeCN/LiBF4, 0.01M substrate, 0.10M support, (E1c+E1a)/2, — = no anodic current observed
[5] = MeCN/LiBF4, 0.01M substrate, 0.10M support, (E2c+E2a)/2
[6] = PC/LiBF4, 0.01M substrate, 0.10M support
[7] = PC/TBABF4, 0.01M substrate, 0.10M support
[8] = MeCN/LiBF4, CV measured at 200 mV/s scan rate

CC[n+]1ccc(C(=O)OC(C)C)cc1 [Compound 7c]
ipc1/ipa1 (10 mV/s) [1, 3]: 0.97 | ipc2/ipa2 (10 mV/s) [1, 3]: 0.95 | E1^0 [1, 4]: −1.13 V | E2^0 [1, 5]: −1.89 V

CC(C)OC(=O)c1cc[n+]([O-])cc1 [Compound 4c]
ipc1/ipa1 (10 mV/s) [1, 3]: >5 | ipc1/ipa1 (100 mV/s) ([2]; MeCN/LiBF4): >5

COC(=O)c1cccnc1 [Compound 2a, methyl nicotinate]
ipc1/ipa1 (10 mV/s) ([2]; MeCN/TBABF4): >5 | ipc1/ipa1 (100 mV/s) ([2]; MeCN/TBABF4): >5 | reversibility of reduction ([2]; MeCN/TBABF4): No re-oxidation current was observed

CN(C)C(=O)c1ccncc1 [Compound 3e]
reversibility of redox couple ([1]; 100 mV/s): quasi-reversible | ipc1/ipa1 (10 mV/s) ([2]; MeCN/TBABF4): >5 | ipc1/ipa1 (100 mV/s) ([2]; MeCN/TBABF4): 1.18 | E1^0 ([2]; MeCN/TBABF4): −2.52 V | reversibility of redox couple ([2]; MeCN/TBABF4): irreversible

CC[n+]1ccc(C(=O)OC)cc1 [Compound 8a]
ipc1/ipa1 (10 mV/s) [1, 3]: 0.98 | ipc2/ipa2 (10 mV/s) [1, 3]: 0.95 | E1^0 [1, 4]: −1.11 V | E2^0 [1, 5]: −1.89 V

COC(=O)c1cc[n+]([B-](F)(F)F)cc1 [Compound 5a]
ipc1/ipa1 (10 mV/s) [1, 3]: 1.06 | E1^0 [1, 4]: −1.83 V | ipc1/ipa1 (100 mV/s) ([2]; MeCN/LiBF4): 1.02 | ipc1/ipa1 (10 mV/s) ([2]; MeCN/TBABF4): 1.10 | ipc1/ipa1 (100 mV/s) ([2]; MeCN/TBABF4): 1.03 | E1^0 ([2]; MeCN/TBABF4): −1.42 V | current peak-height ratios [2]: approaching unity

COC(=O)c1ccncc1 [Compound 3a, methyl isonicotinate]
ipc1/ipa1 (10 mV/s) [1, 3]: >5 | ipc1/ipa1 (10 mV/s) [1, 6]: >5 | ipc1/ipa1 (100 mV/s) [1, 6]: >5 | E1^0 [1, 7]: −2.62 V | ipc1/ipa1 (10 mV/s) [1, 7]: 2.02 | ipc1/ipa1 (100 mV/s) [1, 7]: 1.35 | ipc1/ipa1 (100 mV/s) ([2]; MeCN/LiBF4): >5 | ipc1/ipa1 (10 mV/s) ([2]; MeCN/TBABF4): 1.67 | ipc1/ipa1 (100 mV/s) ([2]; MeCN/TBABF4): 1.15 | E1^0 ([2]; MeCN/TBABF4): −2.16 V | reversibility of redox couple ([2]; MeCN/TBABF4): reversible

CC[n+]1ccc(C(=O)OC)cc1 [Compound 7a]
anodic peak with no corresponding cathodic current ([1]; MeCN, 0.1 M LiBF4, 200 mV/s, +1 V to −2.5 V): +0.4 V | ipc1/ipa1 (10 mV/s) [1, 3]: 0.98 | ipc2/ipa2 (10 mV/s) [1, 3]: 0.96 | E1^0 [1, 4]: −1.11 V | E2^0 [1, 5]: −1.88 V | E1^0 [1, 8]: −1.12 V | ipc1/ipa1 [1, 8]: 1.02^f | ipc2/ipa2 [1, 8]: 1.08^f | current peaks at positive potentials ([1]; MeCN/LiBF4, lower scanning limit −1.4 V or −0.5 V): no current peaks were observed | high potential peak ([1]; MeCN, LiTFSI as the support): only a small high potential peak | high potential peak ([2]; MeCN, TBABF4 as the electrolyte): no high potential peak is observed

CC[n+]1ccc(C(=O)OC(C)(C)C)cc1 [Compound 7d]
ipc1/ipa1 (10 mV/s) [1, 3]: 0.99 | ipc2/ipa2 (10 mV/s) [1, 3]: 0.93 | E1^0 [1, 4]: −1.15 V | E2^0 [1, 5]: −1.93 V | E1^0 [1, 8]: −1.14 V | E2^0 [1, 8]: −1.92 V | ipc1/ipa1 [1, 8]: 1.09^f | ipc2/ipa2 [1, 8]: 1.38^f

CCOC(=O)c1ccncc1 [Compound 3b]
ipc1/ipa1 (10 mV/s) ([2]; MeCN/TBABF4): 1.28 | ipc1/ipa1 (100 mV/s) ([2]; MeCN/TBABF4): 1.03 | E1^0 ([2]; MeCN/TBABF4): −2.20 V

CCOC(=O)c1cc[n+]([O-])cc1 [Compound 4b]
ipc1/ipa1 (10 mV/s) [1, 3]: >5 | ipc1/ipa1 (100 mV/s) ([2]; MeCN/LiBF4): >5

COC(=O)c1cc[n+]([O-])cc1 [Compound 4a]
ipc1/ipa1 (10 mV/s) [1, 3]: >5 | ipc1/ipa1 (100 mV/s) ([2]; MeCN/LiBF4): >5 | ipc1/ipa1 (10 mV/s) ([2]; MeCN/TBABF4): 1.41 | ipc1/ipa1 (100 mV/s) ([2]; MeCN/TBABF4): 1.05 | E1^0 ([2]; MeCN/TBABF4): −1.96 V

CCOC(=O)c1cc[n+](CC)cc1 [Compound 7b]
ipc1/ipa1 (10 mV/s) [1, 3]: 0.99 | ipc2/ipa2 (10 mV/s) [1, 3]: 0.96 | E1^0 [1, 4]: −1.11 V | E2^0 [1, 5]: −1.90 V

CC(C)OC(=O)c1ccncc1 [Compound 3c]
ipc1/ipa1 (10 mV/s) ([2]; MeCN/TBABF4): 1.10 | ipc1/ipa1 (100 mV/s) ([2]; MeCN/TBABF4): 1.02 | E1^0 ([2]; MeCN/TBABF4): −2.20 V

CC(C)OC(=O)c1cc[n+]([B-](F)(F)F)cc1 [Compound 5c]
ipc1/ipa1 (10 mV/s) [1, 3]: 1.09 | E1^0 [1, 4]: −1.80 V | ipc1/ipa1 (100 mV/s) ([2]; MeCN/LiBF4): 1.06

COC(=O)c1ccccn1 [Compound 1a, Methyl picolinate]
reversibility of redox couple ([1]; 100 mV/s): quasi-reversible | ipc1/ipa1 (10 mV/s) ([2]; MeCN/TBABF4): >5 | ipc1/ipa1 (100 mV/s) ([2]; MeCN/TBABF4): 1.83 | E1^0 ([2]; MeCN/TBABF4): −2.36 V | reversibility of redox couple ([2]; MeCN/TBABF4): completely irreversible

CCOC(=O)c1cc[n+]([B-](F)(F)F)cc1 [Compound 5b]
ipc1/ipa1 (10 mV/s) [1, 3]: 1.08 | E1^0 [1, 4]: −1.80 V | ipc1/ipa1 (100 mV/s) ([2]; MeCN/LiBF4): 1.06

COc1ccccn1 [2-methoxypyridine, reference compound]
reduction within the electrochemical window of MeCN [2]: no reduction was observed

CC(C)(C)OC(=O)c1cc[n+]([B-](F)(F)F)cc1 [Compound 5d]
re-oxidation after the second reduction ([1]; LiBF4 supporting electrolyte, 100 mV/s, scanned to more negative potentials): Minimal re-oxidation | ipc1/ipa1 (10 mV/s) [1, 3]: 1.11 | E1^0 [1, 4]: −1.84 V | ipc1/ipa1 (100 mV/s) ([2]; MeCN/LiBF4): 1.06 | ipc1/ipa1 (10 mV/s) ([2]; MeCN/TBABF4): 1.05 | ipc1/ipa1 (100 mV/s) ([2]; MeCN/TBABF4): 1.03 | E1^0 ([2]; MeCN/TBABF4): −1.45 V | current peak-height ratios [2]: approaching unity

COc1ccncc1 [4-methoxypyridine, reference compound]
reduction within the electrochemical window of MeCN [2]: no reduction was observed

CC[n+]1ccc(C(=O)OC)cc1.[I-] [Compound 6a]
ipc1/ipa1 (10 mV/s) [1, 3]: 0.99 | ipc2/ipa2 (10 mV/s) [1, 3]: 0.95 | E1^0 [1, 4]: −1.11 V | E2^0 [1, 5]: −1.85 V

N#CCOC(=O)c1ccncc1 [Compound 3f]
reduction potential [2]: approximately −2.0 V | ipc1/ipa1 (10 mV/s) ([2]; MeCN/TBABF4): >5 | ipc1/ipa1 (100 mV/s) ([2]; MeCN/TBABF4): >5 | reversibility of reduction ([2]; MeCN/TBABF4): highly irreversible

O=C(OC(C(F)(F)F)C(F)(F)F)c1ccncc1 [Compound 3h]
reduction potential [2]: approximately −2.0 V | ipc1/ipa1 (10 mV/s) ([2]; MeCN/TBABF4): >5 | ipc1/ipa1 (100 mV/s) ([2]; MeCN/TBABF4): >5 | reversibility of reduction ([2]; MeCN/TBABF4): highly irreversible

Cc1ccncc1 [4-methylpyridine, reference compound]
reduction within the electrochemical window of MeCN [2]: no reduction was observed

COc1ccnc(-c2cc(OC)ccn2)c1 [4,4′-methoxy bipyridine, reference compound]
reduction potential [2]: −2.6 V | reversibility of reduction ([2]; MeCN/TBABF4): reversibly

CC(C)(C)OC(=O)c1cc[n+]([O-])cc1 [Compound 4d]
ipc1/ipa1 (10 mV/s) [1, 3]: >5 | ipc1/ipa1 (100 mV/s) ([2]; MeCN/LiBF4): >5 | ipc1/ipa1 (10 mV/s) ([2]; MeCN/TBABF4): 1.17 | ipc1/ipa1 (100 mV/s) ([2]; MeCN/TBABF4): 1.00 | E1^0 ([2]; MeCN/TBABF4): −2.01 V

CCOC(=O)c1cc[n+](CC)cc1.[I-] [Compound 6b]
ipc1/ipa1 (10 mV/s) [1, 3]: 0.98 | ipc2/ipa2 (10 mV/s) [1, 3]: 0.94 | E1^0 [1, 4]: −1.10 V | E2^0 [1, 5]: −1.86 V

O=C(OCC(F)(F)F)c1ccncc1 [Compound 3g]
reduction potential [2]: approximately −2.0 V | ipc1/ipa1 (10 mV/s) ([2]; MeCN/TBABF4): >5 | ipc1/ipa1 (100 mV/s) ([2]; MeCN/TBABF4): 1.91 | E1^0 ([2]; MeCN/TBABF4): −2.03 V | reversibility of reduction ([2]; MeCN/TBABF4): highly irreversible

Cc1ccccn1 [2-methylpyridine, reference compound]
reduction within the electrochemical window of MeCN [2]: no reduction was observed

CC(C)(C)OC(=O)c1ccncc1 [Compound 3d]
reversible reduction processes ([1]; LiBF4 support, scan rates between 10 and 500 mV/s, acetonitrile or propylene carbonate): No reversible reduction processes were observed | ipc1/ipa1 (10 mV/s) ([2]; MeCN/TBABF4): 1.09 | ipc1/ipa1 (100 mV/s) ([2]; MeCN/TBABF4): 1.01 | E1^0 ([2]; MeCN/TBABF4): −2.24 V
